What was measured:
Assay type in all cases: cell-based
[1] = Cytotoxicity in HCV replicon cells (Cell Titer-fluor)
Protocol: (§1) The EC50 and CC50 values of anti-HCV compounds were determined by HCV genotype 1a (HCV-1a) and 1b (HCV-1b) stable transfected replication (replicon) cells. The source of genotype 1a replicon is H77 clones containing K1691R, K2040R and S2204I adaptive mutations. The source of genotype 1b replicon is Con1 clones containing E1202G, T1280I and K1846T adaptive mutations.
(§2) The compound powder was dissolved in 100% DMSO. Then the compound was diluted 5 times with 6 points, and added into the cell plate with Echo liquid handler. Ensure the final concentration of DMSO was 0.5%. Each compound was tested in duplicate.
(§3) 4) Diluting cells to 8×10^4 cells/mL with the culture medium, adding the diluted cells into the compound-containing 96-well plate (Greiner, Cat. #655090) (100 μL/well, 8000 cells/well) with automatic liquid separator (Thermo Scientific). Then place into a 37° C., 5% CO2 incubator for 3 days. Cell control well: no compound, only containing 0.5% DMSO.
5) Adding fluorescence substrate Cell Titer-fluor to the cell well, after incubation for 30 minutes, detecting the signal by microplate reader Envison (Ex at 405 nm and read at 515 nm). The effect of the compounds on the cytotoxicity of HCV replicon cells was analyzed according to the fluorescence data, which was used to calculate the CC50 values.
(§4) The EC50 or CC50 values were obtained by nonlinear fitting regression on inhibition percentage (inh %) data with GraphPad Prism software.

[2] = test system: HCV genotype 1a (HCV-1a) replicon cells; assay: HCV genotype 1a replicon cell assay (luciferase, Bright-Glo); conditions: Hepatitis C virus, 72 h, HCV-1a (H77) replicon cells, 3 days
Protocol: as §1
(§5) HCV 1a (HCV-1a) and 1b (HCV-1b) gene subtype replicon system contains the related HCV gene subtype non-structural protein gene, G418 resistance gene NEO and luciferase gene, which results in that HCV related protein and luciferase can be stably expressed in cells. By detecting the level of expression of luciferase gene, the level of HCV replication can be determined. Therefore, the system is used as a model for screening the activity of anti-HCV compound in vitro.
as §2, §3
(§6) 6) Then adding luciferase substrate Bright-Glo, after incubation for 5 minutes, detecting the luciferase activity by microplate reader Envison (wavelength>700 nm); analyzing the anti-HCV inhibitory activity of the compounds according to luminescence data, which was used to calculate EC50 values.
as §4

[3] = test system: HCV genotype 1b (HCV-1b) replicon cells; assay: HCV genotype 1b replicon cell assay (luciferase, Bright-Glo); conditions: Hepatitis C virus, 72 h, HCV-1b (Con1) replicon cells, 3 days
Protocol: as §1, §5, §2, §3, §6, §4

Row | SMILES | CC50 at 3 days [1] | EC50 [2] | EC50 [3]
1 | O=C(c1nc2c(C(F)(F)F)cc(C3CC3)cn2c1Cl)N1CCN(C2CCCC2)C(=O)N1 [YA_0338] | > 3000 nM | 0.1 to 100 nM | 0.1 to 100 nM
2 | O=C1NN(C(=O)c2nc3c(C(F)(F)F)cc(C4CC4)cn3c2Cl)CCN1CC(F)F [YA_0358] | > 3000 nM | 100 to 1000 nM | 100 to 1000 nM
3 | O=C(c1nc2c(C(F)(F)F)cc(C3CC3)cn2c1Cl)N1CCN([C@H]2C[C@H](O)C2)C(=O)N1 [YA_0359] | > 3000 nM | – | –
4 | CC(C)N1CCN(C(=O)c2nc3c(C(F)(F)F)cc(C4CC4)cn3c2Cl)NC1=O [YA_0360] | > 3000 nM | 0.1 to 100 nM | 0.1 to 100 nM
5 | O=C1NN(C(=O)c2nc3c(C(F)(F)F)cc(C4CC4)cn3c2Cl)CCN1CC(F)(F)F [YA_0361] | > 3000 nM | – | –
6 | O=C(c1nc2c(C(F)(F)F)cc(C3CC3)cn2c1Cl)N1CCN(C2CC2)C(=O)N1 [YA_0362] | > 3000 nM | – | –
7 | O=C(c1nc2c(C(F)(F)F)cc(C3CC3)cn2c1Cl)N1CCN([C@H]2CC[C@H](O)CC2)C(=O)N1 [YA_0363] | > 3000 nM | 0.1 to 100 nM | 0.1 to 100 nM
8 | O=C(c1nc2c(C(F)(F)F)cc(C3CC3)cn2c1Cl)N1CCN(C2CCC(F)(F)CC2)C(=O)N1 [YA_0366] | > 3000 nM | 0.1 to 100 nM | 0.1 to 100 nM
9 | O=C(c1nc2c(C(F)(F)F)cc(C3CC3)cn2c1Cl)N1CCN(C2CC(F)(F)C2)C(=O)N1 [YA_0367] | > 3000 nM | 0.1 to 100 nM | 0.1 to 100 nM
10 | Cc1cc(C(F)(F)F)c2nc(C(=O)N3CCN(C(C)(C)C)C(=O)N3)c(Cl)n2c1 [YA_0368] | > 3000 nM | 0.1 to 100 nM | 100 to 1000 nM
11 | Cc1nnc(C23CCC(NC(=O)c4cc5cc(C(C)C)cc(C(F)(F)F)c5o4)(CC2)CC3)o1 [YD_0019] | > 3000 nM | – | 100 to 1000 nM
12 | CC(C)c1cc(C(F)(F)F)c2oc(C(=O)N3CCN(C4CCC(O)CC4)C(=O)C3)cc2c1 (stereo not drawn) [YD_0044] | > 3000 nM | – | 0.1 to 100 nM
13 | Cc1nnc(C23CCC(NC(=O)c4oc5c(C(F)(F)F)cc(C6CC6)cc5c4Cl)(CC2)CC3)o1 [YD_0056] | > 3000 nM | – | 1000 to 5000 nM
14 | Cc1nnc(C23CCC(NC(=O)c4oc5c(C(F)(F)F)cc(C6CC6)cc5c4Br)(CC2)CC3)o1 [YD_0057] | > 3000 nM | – | 100 to 1000 nM
15 | Cc1nnc(C23CCC(NC(=O)c4oc5c(C(F)(F)F)cc(C6CC6)cc5c4C)(CC2)CC3)o1 [YD_0058] | > 3000 nM | – | 100 to 1000 nM
16 | Cc1nnc(C23CCC(NC(=O)c4oc5c(C(F)(F)F)cc(C(C)C)cc5c4Cl)(CC2)CC3)o1 [YD_0059] | > 3000 nM | 0.1 to 100 nM | 100 to 1000 nM
17 | CCCc1cc(C(F)(F)F)c2oc(C(=O)NC34CCC(c5nnc(C)o5)(CC3)CC4)c(Cl)c2c1 [YD_0060] | > 3000 nM | – | 100 to 1000 nM
18 | O=C(NC12CCC(c3nnco3)(CC1)CC2)c1oc2c(C(F)(F)F)cc(C3CC3)cc2c1Cl [YD_0122] | > 3000 nM | 0.1 to 100 nM | 100 to 1000 nM
19 | O=C(c1oc2c(C(F)(F)F)cc(C3CC3)cc2c1Cl)N1CCN(N2CCOC2=O)CC1 [YD_0214] | > 3000 nM | 0.1 to 100 nM | 0.1 to 100 nM
20 | CC(C)c1cc(C(F)(F)F)c2oc(C(=O)N3CCN(N4CCOC4=O)CC3)c(Cl)c2c1 [YD_0215] | > 3000 nM | 0.1 to 100 nM | 0.1 to 100 nM

Row | SMILES | CC50 at 3 days [1] | EC50 [2] | EC50 [3]
21 | CCCc1cc(C(F)(F)F)c2oc(C(=O)N3CCN(N4CCOC4=O)CC3)c(Cl)c2c1 [YD_0216] | > 3000 nM | 0.1 to 100 nM | 0.1 to 100 nM
22 | O=C(c1oc2c(C(F)(F)F)cc(C3CC3)cc2c1Cl)N1CCN(N2CCOC2=O)C(=O)C1 [YD_0219] | > 3000 nM | 0.1 to 100 nM | 0.1 to 100 nM
23 | O=C(c1oc2c(F)cc(C3CC3)cc2c1Cl)N1CCN(N2CCOC2=O)CC1 [YD_0245] | > 3000 nM | 0.1 to 100 nM | 0.1 to 100 nM
24 | N#Cc1c(C(=O)N2CCN(N3CCOC3=O)CC2)oc2c(C(F)(F)F)cc(C3CC3)cc12 [YD_0250] | > 3000 nM | 0.1 to 100 nM | 0.1 to 100 nM
25 | O=C(c1oc2c(C(F)(F)F)cc(C3CC3)cc2c1Cl)N1CCN(C23CC(C2)C3)C(=O)C1 [YD_0253] | > 3000 nM | 100 to 1000 nM | 0.1 to 100 nM
26 | O=C1CN(N2CCN(C(=O)c3oc4c(C(F)(F)F)cc(C5CC5)cc4c3Cl)CC2=O)C(=O)N1 [YD_0272] | > 3000 nM | 100 to 1000 nM | 100 to 1000 nM
27 | CN(C)C(=O)C1CCN(C(=O)c2oc3c(C(F)(F)F)cc(C4CC4)cc3c2Cl)CC1 [YD_0273] | > 3000 nM | 0.1 to 100 nM | 0.1 to 100 nM
28 | O=C(c1oc2c(C(F)F)cc(C3CC3)cc2c1Cl)N1CCN(N2CCOC2=O)CC1 [YD_0278] | > 3000 nM | 0.1 to 100 nM | 0.1 to 100 nM
29 | O=C(c1oc2c(C(F)(F)F)cc(C3CC3)cc2c1Cl)N1CCCN(N2CCOC2=O)CC1 [YD_0279] | > 3000 nM | 0.1 to 100 nM | 0.1 to 100 nM
30 | O=C(c1oc2c(C(F)(F)F)cc(C3CC3)cc2c1Cl)N1CCN(C23CCC(CC2)CC3)C(=O)C1 [YD_0280] | > 3000 nM | 100 to 1000 nM | 100 to 1000 nM
31 | CC(C)N(C)C(=O)C1CCN(C(=O)c2oc3c(C(F)(F)F)cc(C4CC4)cc3c2Cl)CC1 [YD_0302] | > 3000 nM | 100 to 1000 nM | 1000 to 5000 nM
32 | CCN(C)C(=O)C1CCN(C(=O)c2oc3c(C(F)(F)F)cc(C4CC4)cc3c2Cl)CC1 [YD_0304] | > 3000 nM | 100 to 1000 nM | 0.1 to 100 nM
33 | CN1CCN(C(=O)C2CCN(C(=O)c3oc4c(C(F)(F)F)cc(C5CC5)cc4c3Cl)CC2)CC1 [YD_0305] | > 3000 nM | 100 to 1000 nM | 1000 to 5000 nM
34 | C[C@H]1COCCN1C(=O)C1CCN(C(=O)c2oc3c(C(F)(F)F)cc(C4CC4)cc3c2Cl)CC1 [YD_0311] | > 3000 nM | 100 to 1000 nM | 100 to 1000 nM
35 | CCOC(=O)NN1CCN(C(=O)c2oc3c(C(F)(F)F)cc(C4CC4)cc3c2Cl)CC1 [YD_0312] | > 3000 nM | 100 to 1000 nM | 100 to 1000 nM
36 | O=C(c1oc2c(C(F)(F)F)cc(C3CC3)cc2c1Cl)N1CCC(C(=O)N2CCC2)CC1 [YD_0313] | > 3000 nM | 0.1 to 100 nM | 0.1 to 100 nM
37 | CN(C)C(=O)C1(C)CCN(C(=O)c2oc3c(C(F)(F)F)cc(C4CC4)cc3c2Cl)CC1 [YD_0317] | > 3000 nM | 100 to 1000 nM | 1000 to 5000 nM
38 | CC1(C(=O)N2CC(O)C2)CCN(C(=O)c2oc3c(C(F)(F)F)cc(C4CC4)cc3c2Cl)CC1 [YD_0318] | > 3000 nM | 100 to 1000 nM | 1000 to 5000 nM
39 | CC1CN(C)CCN1C(=O)C1CCN(C(=O)c2oc3c(C(F)(F)F)cc(C4CC4)cc3c2Cl)CC1 (stereo not drawn) [YD_0321] | > 3000 nM | 100 to 1000 nM | 1000 to 5000 nM
40 | CC1CNCCN1C(=O)C1CCN(C(=O)c2oc3c(C(F)(F)F)cc(C4CC4)cc3c2Cl)CC1 (stereo not drawn) [YD_0322] | > 3000 nM | 100 to 1000 nM | 100 to 1000 nM

Reference: patent US10100027B2, “Benzofuran analogue as NS4B inhibitor” (priority 2014, dated 2018)
